ChEMBL document CHEMBL1201862, “PubChem BioAssay data set” (2004)
Activity calls are given as the source filed them.

What was measured:
[1] = target: T1, Cysteine protease ATG4B (Homo sapiens, UniProt Q9Y4P1); type: functional;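 note: Fluorescence-based dose-response confirmation assay measuring inhibition of ATG4B activity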
T1 sequence (Q9Y4P1 whole entry): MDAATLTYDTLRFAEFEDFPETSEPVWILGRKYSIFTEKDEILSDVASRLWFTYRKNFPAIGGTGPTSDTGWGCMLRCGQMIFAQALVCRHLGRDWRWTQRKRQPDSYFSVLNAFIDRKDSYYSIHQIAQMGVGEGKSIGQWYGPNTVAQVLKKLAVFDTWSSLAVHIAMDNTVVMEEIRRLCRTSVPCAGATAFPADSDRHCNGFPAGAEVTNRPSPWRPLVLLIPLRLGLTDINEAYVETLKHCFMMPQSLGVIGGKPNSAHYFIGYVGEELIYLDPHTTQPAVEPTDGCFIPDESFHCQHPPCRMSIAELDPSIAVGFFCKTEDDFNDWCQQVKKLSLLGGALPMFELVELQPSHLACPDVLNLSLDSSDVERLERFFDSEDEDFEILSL

[2] = target: Phospholipase A2 (Homo sapiens, UniProt P04054); type: functional;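 note: confirmatory dose-response counterscreen on phospholipase A2, testing hits that came from an ultra-high-throughput screen for ATG4B inhibitors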
[3] = target: T2, Caspase-3 (Homo sapiens, UniProt P42574); type: functional;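 note: Dose-response selectivity test against caspase-3 for candidate inhibitors of sentrin-specific proteases (SENPs)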
T2 sequence (P42574 whole entry): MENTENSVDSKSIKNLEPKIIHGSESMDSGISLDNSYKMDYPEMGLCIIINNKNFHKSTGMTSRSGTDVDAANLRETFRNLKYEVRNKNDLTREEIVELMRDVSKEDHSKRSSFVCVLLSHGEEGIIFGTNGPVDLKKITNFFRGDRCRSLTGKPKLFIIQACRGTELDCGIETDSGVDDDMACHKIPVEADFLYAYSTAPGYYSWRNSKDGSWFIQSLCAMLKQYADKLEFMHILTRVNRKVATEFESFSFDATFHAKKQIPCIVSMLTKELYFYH

[4] = target: T3, Sentrin-specific protease 7 (Homo sapiens, UniProt Q9BQF6); type: functional;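 note: Luminescence-based dose-response confirmation of ultra-high-throughput screening hits, measuring inhibition of SENP7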
T3 sequence (Q9BQF6 whole entry): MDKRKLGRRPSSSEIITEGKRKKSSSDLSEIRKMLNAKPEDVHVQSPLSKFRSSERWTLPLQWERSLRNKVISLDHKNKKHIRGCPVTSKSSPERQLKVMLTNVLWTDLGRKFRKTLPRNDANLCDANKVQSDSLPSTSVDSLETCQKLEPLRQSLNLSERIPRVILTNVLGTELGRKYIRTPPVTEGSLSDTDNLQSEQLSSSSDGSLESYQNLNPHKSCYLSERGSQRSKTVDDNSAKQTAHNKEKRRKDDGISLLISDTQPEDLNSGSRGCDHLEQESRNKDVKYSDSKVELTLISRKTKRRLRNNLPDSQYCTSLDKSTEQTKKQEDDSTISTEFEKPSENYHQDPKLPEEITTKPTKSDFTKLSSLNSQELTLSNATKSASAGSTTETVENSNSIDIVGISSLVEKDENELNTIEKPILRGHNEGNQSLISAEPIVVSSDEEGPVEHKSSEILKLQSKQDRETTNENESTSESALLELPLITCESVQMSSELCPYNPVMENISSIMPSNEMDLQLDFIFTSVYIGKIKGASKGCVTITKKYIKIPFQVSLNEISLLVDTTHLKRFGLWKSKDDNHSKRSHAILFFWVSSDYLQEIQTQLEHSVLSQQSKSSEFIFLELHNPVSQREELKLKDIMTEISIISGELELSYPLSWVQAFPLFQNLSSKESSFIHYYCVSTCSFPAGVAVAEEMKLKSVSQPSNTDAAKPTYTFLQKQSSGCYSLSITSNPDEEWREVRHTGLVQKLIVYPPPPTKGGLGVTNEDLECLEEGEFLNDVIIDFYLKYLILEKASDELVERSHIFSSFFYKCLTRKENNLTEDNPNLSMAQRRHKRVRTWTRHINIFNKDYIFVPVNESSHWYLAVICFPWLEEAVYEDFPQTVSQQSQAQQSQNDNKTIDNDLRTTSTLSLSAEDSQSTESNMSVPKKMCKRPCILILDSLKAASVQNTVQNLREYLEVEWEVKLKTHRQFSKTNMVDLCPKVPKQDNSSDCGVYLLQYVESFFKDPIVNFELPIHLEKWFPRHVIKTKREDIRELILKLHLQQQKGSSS

[5] = target: T4, Sentrin-specific protease 6 (Homo sapiens, UniProt Q9GZR1); type: functional;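 note: Luminescence-based dose-response confirmatory assay of SENP6 inhibition, following up an ultra-high-throughput screen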
T4 sequence (Q9GZR1 whole entry): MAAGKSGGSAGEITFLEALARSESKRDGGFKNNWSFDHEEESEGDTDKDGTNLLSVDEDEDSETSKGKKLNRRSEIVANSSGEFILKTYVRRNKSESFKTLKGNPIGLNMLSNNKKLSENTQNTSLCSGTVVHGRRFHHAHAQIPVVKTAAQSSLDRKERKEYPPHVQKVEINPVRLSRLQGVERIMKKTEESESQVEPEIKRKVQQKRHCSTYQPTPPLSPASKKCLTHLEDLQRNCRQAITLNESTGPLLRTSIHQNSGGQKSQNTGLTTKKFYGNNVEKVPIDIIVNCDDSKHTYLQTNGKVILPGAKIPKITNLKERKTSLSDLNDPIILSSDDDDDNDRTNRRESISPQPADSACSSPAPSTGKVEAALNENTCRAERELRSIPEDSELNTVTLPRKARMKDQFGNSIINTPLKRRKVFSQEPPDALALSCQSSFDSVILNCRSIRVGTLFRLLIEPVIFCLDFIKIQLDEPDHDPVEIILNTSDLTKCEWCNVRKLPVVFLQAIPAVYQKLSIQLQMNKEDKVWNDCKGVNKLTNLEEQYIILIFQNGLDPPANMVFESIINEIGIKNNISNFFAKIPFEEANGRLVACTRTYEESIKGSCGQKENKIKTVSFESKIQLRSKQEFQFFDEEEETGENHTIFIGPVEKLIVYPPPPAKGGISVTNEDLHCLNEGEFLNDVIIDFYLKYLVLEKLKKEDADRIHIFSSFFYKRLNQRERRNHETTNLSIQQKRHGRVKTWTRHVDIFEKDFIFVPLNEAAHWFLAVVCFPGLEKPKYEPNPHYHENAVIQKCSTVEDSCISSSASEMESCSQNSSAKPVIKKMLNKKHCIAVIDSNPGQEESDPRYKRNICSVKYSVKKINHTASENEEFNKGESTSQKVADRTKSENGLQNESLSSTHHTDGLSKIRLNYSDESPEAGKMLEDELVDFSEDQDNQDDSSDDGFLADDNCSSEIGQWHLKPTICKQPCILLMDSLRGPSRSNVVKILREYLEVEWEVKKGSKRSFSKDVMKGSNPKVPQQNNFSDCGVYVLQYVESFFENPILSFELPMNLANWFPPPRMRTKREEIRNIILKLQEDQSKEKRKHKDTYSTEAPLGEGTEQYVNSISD

[6] = target: T5, Sentrin-specific protease 8 (Homo sapiens, UniProt Q96LD8); type: functional;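 note: luminescence read-out of SENP8 inhibition, dose-response confirmation following an ultra-high-throughput screen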
T5 sequence (Q96LD8 whole entry): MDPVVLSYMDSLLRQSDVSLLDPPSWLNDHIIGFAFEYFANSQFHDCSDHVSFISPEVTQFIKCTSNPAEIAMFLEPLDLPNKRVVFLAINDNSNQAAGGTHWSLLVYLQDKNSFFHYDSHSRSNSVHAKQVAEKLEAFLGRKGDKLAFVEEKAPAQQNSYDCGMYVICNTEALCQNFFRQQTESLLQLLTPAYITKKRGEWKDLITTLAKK

[7] = test system: HeLa; test: HeLa cell cytotoxicity, dose response, cytotoxicity control for MITF activator project, CellTiter-Glo luminescence, cherry-pick samples (AID 540259); type: functional, cell-based; settings: Homo sapiens
[8] = target: Beta-galactosidase (Escherichia coli, UniProt Q8VNN2); test: PubChem AID 485352; type: functional
[9] = target: T6, Type-1 angiotensin II receptor (Homo sapiens, UniProt P30556); test: AT1 receptor antagonists, dose response, selectivity assay for APJ receptor antagonist project, cell-based, uHTS hits (AID 463214); type: functional;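 note: antagonist potency against angiotensin II stimulated AT1 response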
T6 sequence (P30556 whole entry): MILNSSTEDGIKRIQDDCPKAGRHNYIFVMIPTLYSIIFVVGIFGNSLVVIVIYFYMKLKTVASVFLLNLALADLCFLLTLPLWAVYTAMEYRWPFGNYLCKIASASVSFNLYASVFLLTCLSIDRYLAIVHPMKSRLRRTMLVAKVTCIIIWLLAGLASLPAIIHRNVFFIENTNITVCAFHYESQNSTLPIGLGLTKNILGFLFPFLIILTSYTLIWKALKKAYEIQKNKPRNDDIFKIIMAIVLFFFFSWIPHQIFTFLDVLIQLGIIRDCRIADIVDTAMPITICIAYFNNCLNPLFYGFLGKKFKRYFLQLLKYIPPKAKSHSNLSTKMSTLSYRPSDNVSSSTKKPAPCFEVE

[10] = target: T7, Endoribonuclease toxin MazF (Escherichia coli K-12, UniProt P0AE70); test: MazF toxin RNase activators, dose response, biochemical, fluorescence, single-stranded RNA substrate, uHTS hits (AID 588481); type: functional
T7 sequence (P0AE70 whole entry): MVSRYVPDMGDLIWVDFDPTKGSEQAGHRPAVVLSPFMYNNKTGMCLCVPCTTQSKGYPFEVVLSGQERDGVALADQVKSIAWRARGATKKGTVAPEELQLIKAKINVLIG

[11] = target: T7, Endoribonuclease toxin MazF; test: fluorescent RNA oligo signal without MazF, dose response, counter-screen for MazEF activator project, biochemical, fluorescence, single-stranded RNase substrate (AID 588502); type: functional
[12] = test system: HEK293; test: cells; type: functional, cell-based; settings: Homo sapiens
[13] = target: T8, Nuclear receptor subfamily 0 group B member 1 (Homo sapiens, UniProt P51843); test: Luminescence-based cell-based high throughput dose response assay for inhibitors of the orphan nuclear receptor subfamily 0, group B, member 1 (DAX1; NR0B1). [Related pubchem assays (depositor defined):AID504766, AID504790]; type: functional
T8 sequence (P51843 whole entry): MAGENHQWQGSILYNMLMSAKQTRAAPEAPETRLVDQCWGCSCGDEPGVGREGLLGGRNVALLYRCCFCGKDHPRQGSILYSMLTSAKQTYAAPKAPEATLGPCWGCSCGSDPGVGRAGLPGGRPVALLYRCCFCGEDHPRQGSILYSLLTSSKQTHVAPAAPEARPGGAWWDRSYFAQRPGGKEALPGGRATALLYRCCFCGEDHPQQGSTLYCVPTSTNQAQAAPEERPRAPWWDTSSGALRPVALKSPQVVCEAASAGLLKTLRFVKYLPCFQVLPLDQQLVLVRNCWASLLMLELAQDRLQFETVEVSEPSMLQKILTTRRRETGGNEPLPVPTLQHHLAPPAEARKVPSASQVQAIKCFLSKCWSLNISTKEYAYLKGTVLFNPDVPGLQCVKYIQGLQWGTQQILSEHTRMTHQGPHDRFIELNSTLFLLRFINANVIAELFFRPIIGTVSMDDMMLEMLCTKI

[14] = target: Cytochrome P450 2D6 (Homo sapiens, UniProt P10635);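 note: CYP2D6 member of a cytochrome P450 panel assay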
[15] = target: Cytochrome P450 3A4 (Homo sapiens, UniProt P08684);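 note: CYP3A4 tested as one member of a cytochrome P450 panel screen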
Chain of Cytochrome P450 3A4 (P08684 whole entry): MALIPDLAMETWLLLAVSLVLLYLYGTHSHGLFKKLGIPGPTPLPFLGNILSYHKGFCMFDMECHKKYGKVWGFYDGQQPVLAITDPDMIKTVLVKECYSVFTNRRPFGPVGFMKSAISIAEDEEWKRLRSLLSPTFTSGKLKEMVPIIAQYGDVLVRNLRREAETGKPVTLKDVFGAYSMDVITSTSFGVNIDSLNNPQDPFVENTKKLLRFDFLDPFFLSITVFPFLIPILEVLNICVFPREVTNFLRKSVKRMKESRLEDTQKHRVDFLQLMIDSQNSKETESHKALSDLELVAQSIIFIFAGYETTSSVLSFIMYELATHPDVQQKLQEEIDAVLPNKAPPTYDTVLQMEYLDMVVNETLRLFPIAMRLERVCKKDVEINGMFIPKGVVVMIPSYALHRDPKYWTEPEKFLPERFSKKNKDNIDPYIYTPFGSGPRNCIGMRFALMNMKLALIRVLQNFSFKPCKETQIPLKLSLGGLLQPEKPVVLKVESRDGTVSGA

Chain of Beta-galactosidase (Q8VNN2 whole entry): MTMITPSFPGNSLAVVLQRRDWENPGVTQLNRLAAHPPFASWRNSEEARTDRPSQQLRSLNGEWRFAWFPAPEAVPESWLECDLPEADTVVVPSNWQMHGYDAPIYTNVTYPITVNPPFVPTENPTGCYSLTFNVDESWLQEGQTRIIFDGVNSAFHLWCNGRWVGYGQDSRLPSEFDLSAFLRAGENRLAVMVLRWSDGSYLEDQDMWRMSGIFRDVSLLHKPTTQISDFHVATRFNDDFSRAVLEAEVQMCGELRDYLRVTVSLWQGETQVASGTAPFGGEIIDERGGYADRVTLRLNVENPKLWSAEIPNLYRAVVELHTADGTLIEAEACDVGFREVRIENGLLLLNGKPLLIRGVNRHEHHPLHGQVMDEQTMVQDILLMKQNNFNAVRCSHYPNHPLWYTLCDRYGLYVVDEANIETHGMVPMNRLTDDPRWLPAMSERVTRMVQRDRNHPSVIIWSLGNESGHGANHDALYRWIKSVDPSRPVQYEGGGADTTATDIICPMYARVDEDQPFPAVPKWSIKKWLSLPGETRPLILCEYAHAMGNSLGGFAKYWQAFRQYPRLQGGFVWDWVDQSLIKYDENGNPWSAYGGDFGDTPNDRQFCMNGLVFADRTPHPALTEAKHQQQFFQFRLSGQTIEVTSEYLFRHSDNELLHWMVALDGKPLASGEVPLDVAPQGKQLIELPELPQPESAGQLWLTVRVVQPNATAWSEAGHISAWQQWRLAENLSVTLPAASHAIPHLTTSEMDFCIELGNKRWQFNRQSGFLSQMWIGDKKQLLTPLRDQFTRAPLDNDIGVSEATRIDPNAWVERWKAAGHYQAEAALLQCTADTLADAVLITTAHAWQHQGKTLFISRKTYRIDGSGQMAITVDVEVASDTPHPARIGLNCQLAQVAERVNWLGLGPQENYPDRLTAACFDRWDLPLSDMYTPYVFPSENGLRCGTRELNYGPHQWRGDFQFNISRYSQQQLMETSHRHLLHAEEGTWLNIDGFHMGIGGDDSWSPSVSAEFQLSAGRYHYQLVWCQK
Chain of Phospholipase A2 (P04054 whole entry): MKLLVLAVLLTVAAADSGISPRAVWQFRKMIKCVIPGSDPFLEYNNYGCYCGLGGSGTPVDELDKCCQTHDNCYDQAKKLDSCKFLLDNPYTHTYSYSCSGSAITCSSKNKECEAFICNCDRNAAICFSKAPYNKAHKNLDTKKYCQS
Chain of Cytochrome P450 2D6 (P10635 whole entry): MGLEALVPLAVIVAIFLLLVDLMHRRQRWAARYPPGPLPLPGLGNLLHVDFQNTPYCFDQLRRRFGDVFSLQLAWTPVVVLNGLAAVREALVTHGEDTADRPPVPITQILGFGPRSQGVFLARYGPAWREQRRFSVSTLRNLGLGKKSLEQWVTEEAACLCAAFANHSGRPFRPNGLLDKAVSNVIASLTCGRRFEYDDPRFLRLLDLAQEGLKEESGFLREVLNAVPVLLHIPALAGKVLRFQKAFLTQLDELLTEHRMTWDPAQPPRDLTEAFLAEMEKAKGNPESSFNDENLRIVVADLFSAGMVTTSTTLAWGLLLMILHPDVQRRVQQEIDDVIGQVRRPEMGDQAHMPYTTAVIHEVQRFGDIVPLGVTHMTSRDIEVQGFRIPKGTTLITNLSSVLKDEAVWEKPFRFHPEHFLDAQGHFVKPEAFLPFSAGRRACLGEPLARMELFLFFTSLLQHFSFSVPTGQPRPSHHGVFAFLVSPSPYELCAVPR

## Cc1ccc(C(=O)NN=C(S)Nc2cccc(Cl)c2Cl)cc1[N+](=O)[O-]
[1]
  IC50: 20.8 µM (inactive)
[2]
  IC50: 13.3 µM (active)

## CCC(C)N(C(=O)COc1ccc(Br)cc1C=O)C1CCS(=O)(=O)C1 (stereo not given)
[1]
  IC50: 10.1 µM (active)
[2]
  IC50: 8.26 µM (active)

## Cc1ccc(C)c(NC(=O)c2cc(-c3cc(C)ccc3O)[nH]n2)c1
[3]
  IC50: 22.3 µM (active)
[4]
  IC50: 5.17 µM (active)
[5]
  IC50: > 100 µM (inactive)
[6]
  IC50: > 100 µM (inactive)
[7]
  AC50: 41.9 µM (active)

## FC(F)(F)c1cnc(NNC(=S)Nc2cccnc2)c(Cl)c1
[8]
  EC50: > 40 µM (inactive)
[9]
  IC50: 15.1 µM (active)

## Cc1ccc(C(=O)COC(=O)CNC(=O)c2ccc(Br)o2)cc1[N+](=O)[O-]
[8]
  EC50: > 40 µM (inactive)
[9]
  IC50: > 40 µM (not active)

## COc1ccc(C)cc1Nc1n[n+](-c2ccccc2)c(-c2cc([N+](=O)[O-])cc(OC)c2O)s1
[10]
  EC50: 23.5 µM (inactive)
[11]
  EC50: 58.4 µM (inactive)

## CCCC(=O)NC(=S)Nc1cccc(Cl)c1N1CCCCC1
[1]
  IC50: 9.11 µM (active)
[2]
  IC50: 6.52 µM (active)

## O=C(COC(=O)c1cnccn1)c1ccc(Cl)c([N+](=O)[O-])c1
[8]
  EC50: > 40 µM (inactive)
[9]
  IC50: 12.5 µM (active)

## Cc1cc(C)c(NC(=O)C2CCCN2C)c(C)c1 (stereo not given)
[12]
  IC50: > 67.3 µM (inactive)
[13]
  IC50: > 67.3 µM (inactive)
[14]
  AC50: 28.2 µM (inconclusive)
[15]
  AC50: 25.1 µM (inconclusive)

## Cc1noc(C)c1S(=O)(=O)N1CCN(S(=O)(=O)c2ccccc2C#N)CC1
[12]
  IC50: > 67.5 µM (inactive)
[13]
  IC50: > 67.5 µM (inactive)
